Values quoted from earlier work in patent US20160175250A1, “Method for Making Liposomes Containing an Active Pharmaceutical Ingredient” (Tolmar Inc., priority 2014, published 2016).

Conditions: patients receiving doses greater than 550 mg per square meter of body area

## COc1cccc2c1C(=O)c1c(O)c3c(c(O)c1C2=O)C[C@@](O)(C(=O)CO)C[C@@H]3O[C@H]1C[C@H](N)[C@H](O)[C@H](C)O1 [doxorubicin, Doxorubicin]
  congestive heart failure from cumulative dose dependent irreversible cardiomyopathy, share of patients: 1-10%
